Experimental data: patent US8912136B2, “Methods and compositions related to clot-binding compounds” (Sanford-Burnham Medical Research Institute, priority 2009, dated 2014)
Where no end group is shown, it is not given here. FAM = 5(6)-carboxyfluorescein; Ahx = NCCCCCC(=O)O

Columns and labels:
plasma clots = test: Binding to plasma clots (affinity); conditions: data not shown
mouse plasma clots = test: Nanoparticle binding to plasma clots in vitro; conditions: FIG. 1D
Method: Phage and nanoparticle binding to clots. Phage binding to clotted plasma proteins was determined as described (Pilch 2006). CREKA-SPIO and control SPIO were added to freshly formed plasma clots in the presence or absence of free CREKA peptide. After 10 min incubation, the clots were washed 4 times in PBS, transferred to a new tube and digested in 100 μl concentrated nitric acid. The digested material was diluted in 2 ml distilled water and the iron concentration was determined using inductively coupled plasma-optical emission spectroscopy (ICP-OES, PerkinElmer, Norwalk, Conn.).

[1] = test system: MDA-MB-435 human breast cancer xenografts; test: Tumor homing of intravenously injected fluorescent CREKA peptide; format: in vivo, mouse
Excerpt: (§1) CREKA peptide. A tumor-homing peptide was used to construct targeted nanoparticles. […] The most frequently represented peptide sequence in the selected phage preparation was CREKA (cys-arg-glu-lys-ala; SEQ ID NO:1). The CREKA peptide was synthesized with a fluorescent dye attached to the N-terminus and the in vivo distribution of the peptide was studied in tumor-bearing mice. […] The peptide formed a distinct meshwork in the tumor stroma (FIG. 5), and it also highlighted the blood vessels in the tumors.
(§2) Phage screening, tumors and peptides. In vivo screening of a peptide library with the general structure of CX7C (SEQ ID NO: 4), where C is cysteine and X is any amino acid, was carried out as described (Oh 2004) using 65- to 75-day-old transgenic MMTV PyMT mice (Hutchinson 2000). These mice express the polyoma virus middle T antigen (MT) under the transcriptional control of the mouse mammary tumor virus (MMTV), leading to the induction of multi-focal mammary tumors in 100% of carriers. MDA-MB-435 tumors in nude mice and peptide synthesis have been described (Laakkonen 2002; Laakkonen 2004). B16F1 murine melanoma tumors were grown in fibrinogen null mice (Suh 1995) and their normal littermates and used when they reached 0.5-1 cm in size (Pilch 2006).

PyMT tumors = test: as above; format: in vivo, mouse; conditions: intravenous; fluorescent dye at N-terminus; minutes to hours after the injection
Excerpt: as §1, §2

[2] = Peptide stability in vivo (NW-bound peptide recovered from blood, mass spectrometry); design: species or system mouse
Method: The peptides were conjugated with a linker that bridges the NW and a cysteine residue on the peptide, forming a disulfide with the OPSS group. The peptide-coated NW were injected into animals, and blood was collected 15 minutes and 3 hours after the injection. The plasma was separated and NW were collected by ultracentrifugation (100,000×g for 10 minutes at 4° C.). Proteins bound to the NW were removed by incubation with glycine-HCl, pH 2.8 on a magnetic LS columns (MACS separation columns, Miltenyi Biotec, Bergisch Gladbach, Germany). The peptides were cleaved from the NW by incubating with 10 mM dithiothreitol for 30 minutes at room temperature. The iron oxide was separated from the peptide by ultracentrifugation (100,000×g for 10 minutes at 4° C.) and the supernatant fractions containing the peptide were analyzed by matrix-assisted laser desorption ionization-time of flight (MALDI-TOF) mass spectrometry.

[3] = test system: orthotopic 22Rv1 xenograft tumors; test: In vivo homing of FAM-labeled CREKA and methylated CREKA peptides; design: species or system mouse
Method: Tumor accumulation of CREKA peptide and its N-methylated and C-methylated variants. The accumulation of N-methylated and C-methylated derivatives of CREKA was measured in mice bearing orthotropic 22Rv-1 xenograft tumors. The mice were intravenously injected with 200 μg of FAM-conjugated CREKA or methylated CREKA peptides derivatives. The peptides were allowed to circulate for 3 hrs. The mice were then perfused through the heart with PBS, and organs were collected and the fluorescence was measured under UV light. The fluorescence was analyzed with Image J software. Most N/C-methylated CREKA analogs produced stronger fluorescence compared to the unmodified CREKA. […] In FIG. 10B the enhanced fluorescence of CR(NMe)EKA is shown in the tumor compared to both CREKA and C(NMe)REKA peptide. It is shown that FAM-labeled CREKA peptide in which the glutamic acid is N-methylated accumulates in tumor tissue more strongly than unmodified CREKA.
Orthotopic prostate cancers were used when they reached 0.5-1 cm in size. Synthetic peptides labeled with fluorescein (approximately 200 μg) were intravenously injected into tumor-bearing mice and allowed to circulate for 15 minutes to 3 hours. The mice were perfused with PBS through the heart under anesthesia, and tissues were collected and observed under UV light (Illumatool Bright Light System LT-9900, Lightools Research, Encinitas, Calif.), and then processed for immunofluorescence or immunohistochemistry.

B16F1 melanomas = test: CREKA peptide homing in fibrinogen null mice and normal littermates; format: in vivo, mouse; conditions: intravenous
Method: Tumors contain a meshwork of clotted plasma proteins in the tumor stroma and the walls of vessels, but no such meshwork is detectable in normal tissues (Dvorak 1985; Abe 1999; Pilch 2006). The mesh-like pattern produced by the CREKA peptide in tumors prompted the study of whether clotted plasma proteins can be the target of this peptide. The peptide was tested in fibrinogen knockout mice, which lack the fibrin meshwork in their tumors. […] Its structure makes it an attractive peptide to use in nanoparticle targeting because, unlike other clot-binding peptides, which are cyclic 10 amino-acid peptides (Pilch 2006), CREKA is linear and contains only 5 amino acids. Moreover, the sulfhydryl group of the single cysteine residue is not required to provide binding activity and can be used to couple the peptide to other moieties.
Phage screening, tumors and peptides. In vivo screening of a peptide library with the general structure of CX7C (SEQ ID NO: 4), where C is cysteine and X is any amino acid, was carried out as described (Oh 2004) using 65- to 75-day-old transgenic MMTV PyMT mice (Hutchinson 2000). These mice express the polyoma virus middle T antigen (MT) under the transcriptional control of the mouse mammary tumor virus (MMTV), leading to the induction of multi-focal mammary tumors in 100% of carriers. […]

Kd (plasma clots): 6 µM
effect of free peptide on CREKA-SPIO binding to clotted plasma proteins (mouse plasma clots): inhibited
Substance: cys-arg-glu-lys-ala ({FAM-Ahx}-CREKA; not fully specified; printed as cys-arg-glu-lys-ala)
whole animal imaging: elimination and liver accumulation ([1]; 30 μg Alexa Fluor 647-labeled CREKA, 6 hours): excreted into the urine and does not accumulate in the liver
CREKA peptide detection in tumors ([1]; intravenous, fluorescent dye at N-terminus, minutes to hours after the injection): readily detectable
CREKA peptide detection in normal tissues ([1]; intravenous, fluorescent peptide): essentially undetectable
CREKA peptide detection in tumors (PyMT tumors): readily detectable
peptide abundance in blood samples ([2]; after 15 minutes of circulation): equally abundant
peptide in blood samples ([2]; after 3 hours): undetectable
fluorescence in the tumors ([3]; 30 minutes after the injection): equally strong fluorescence
decrease of tumor fluorescence ([3]; after 3 hours): 70%
accumulation in tumors grown in fibrinogen null mice (B16F1 melanomas; fibrinogen null mice): failed to accumulate
accumulation in tumors grown in normal littermates (B16F1 melanomas; normal littermates of the null mice): formed a brightly fluorescent meshwork
